Assays:
[1] = target: T1, Tyrosine-protein kinase ITK/TSK (Homo sapiens, UniProt Q08881); experiment: Inhibition of recombinant GST-tagged full-length ITK expressed in baculovirus expression system after 30 mins by scintillation proximity assay
T1 sequence (Q08881 whole entry): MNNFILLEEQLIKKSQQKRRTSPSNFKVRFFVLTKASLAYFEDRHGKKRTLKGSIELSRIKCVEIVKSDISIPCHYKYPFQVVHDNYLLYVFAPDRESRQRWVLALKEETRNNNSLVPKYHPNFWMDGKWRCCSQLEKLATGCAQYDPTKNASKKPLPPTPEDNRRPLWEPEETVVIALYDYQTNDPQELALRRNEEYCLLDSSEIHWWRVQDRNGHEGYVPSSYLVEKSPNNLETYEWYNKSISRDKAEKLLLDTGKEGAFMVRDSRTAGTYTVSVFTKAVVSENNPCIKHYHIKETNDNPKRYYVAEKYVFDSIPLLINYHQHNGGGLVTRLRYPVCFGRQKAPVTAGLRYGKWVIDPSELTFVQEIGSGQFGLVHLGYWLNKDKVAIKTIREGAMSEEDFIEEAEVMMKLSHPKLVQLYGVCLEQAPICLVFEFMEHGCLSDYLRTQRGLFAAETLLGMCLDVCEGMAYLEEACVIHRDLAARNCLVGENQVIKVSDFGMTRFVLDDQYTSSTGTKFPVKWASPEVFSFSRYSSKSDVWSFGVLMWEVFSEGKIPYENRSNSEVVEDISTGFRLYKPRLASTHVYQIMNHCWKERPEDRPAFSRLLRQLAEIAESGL

[2] = target: T2, Mitogen-activated protein kinase 12 (Homo sapiens) (UniProt P53778); experiment: Inhibition of SAPK3 at 1 uM
T2 sequence (whole entry): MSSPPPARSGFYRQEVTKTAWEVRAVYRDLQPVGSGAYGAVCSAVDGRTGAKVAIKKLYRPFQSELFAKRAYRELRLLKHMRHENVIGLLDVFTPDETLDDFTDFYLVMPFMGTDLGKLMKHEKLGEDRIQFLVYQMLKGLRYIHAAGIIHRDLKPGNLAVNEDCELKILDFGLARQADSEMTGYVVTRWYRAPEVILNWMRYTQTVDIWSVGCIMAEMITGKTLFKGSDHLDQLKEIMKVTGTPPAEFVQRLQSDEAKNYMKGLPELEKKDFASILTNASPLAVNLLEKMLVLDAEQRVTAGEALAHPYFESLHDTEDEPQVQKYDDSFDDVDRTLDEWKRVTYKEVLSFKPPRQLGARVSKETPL

[3] = target: Vascular endothelial growth factor receptor 2 (Homo sapiens) (UniProt P35968); experiment: Inhibition of KDR at 1 uM; values are per cent of control
[4] = target: Tyrosine-protein kinase Fer (Homo sapiens) (UniProt P16591); experiment: Inhibition of Fer at 0.1 uM; values are per cent of control
[5] = target: Ephrin type-A receptor 7 (Homo sapiens) (UniProt Q15375); experiment: Inhibition of EphA7 at 1 uM; values are per cent of control
[6] = target: Serine/threonine-protein kinase PLK3 (Homo sapiens) (UniProt Q9H4B4); experiment: Inhibition of Plk3 at 0.1 uM; values are per cent of control
[7] = target: RAF proto-oncogene serine/threonine-protein kinase (Homo sapiens) (UniProt P04049); experiment: Inhibition of c-RAF at 0.1 uM; values are per cent of control
[8] = target: Ephrin type-A receptor 7 (Homo sapiens) (UniProt Q15375); experiment: Inhibition of EphA7 at 0.1 uM; values are per cent of control
[9] = target: T3, cGMP-dependent protein kinase 1 (Homo sapiens) (UniProt Q13976); experiment: Inhibition of PKG1beta at 1 uM; values are per cent of control
T3 sequence (whole entry): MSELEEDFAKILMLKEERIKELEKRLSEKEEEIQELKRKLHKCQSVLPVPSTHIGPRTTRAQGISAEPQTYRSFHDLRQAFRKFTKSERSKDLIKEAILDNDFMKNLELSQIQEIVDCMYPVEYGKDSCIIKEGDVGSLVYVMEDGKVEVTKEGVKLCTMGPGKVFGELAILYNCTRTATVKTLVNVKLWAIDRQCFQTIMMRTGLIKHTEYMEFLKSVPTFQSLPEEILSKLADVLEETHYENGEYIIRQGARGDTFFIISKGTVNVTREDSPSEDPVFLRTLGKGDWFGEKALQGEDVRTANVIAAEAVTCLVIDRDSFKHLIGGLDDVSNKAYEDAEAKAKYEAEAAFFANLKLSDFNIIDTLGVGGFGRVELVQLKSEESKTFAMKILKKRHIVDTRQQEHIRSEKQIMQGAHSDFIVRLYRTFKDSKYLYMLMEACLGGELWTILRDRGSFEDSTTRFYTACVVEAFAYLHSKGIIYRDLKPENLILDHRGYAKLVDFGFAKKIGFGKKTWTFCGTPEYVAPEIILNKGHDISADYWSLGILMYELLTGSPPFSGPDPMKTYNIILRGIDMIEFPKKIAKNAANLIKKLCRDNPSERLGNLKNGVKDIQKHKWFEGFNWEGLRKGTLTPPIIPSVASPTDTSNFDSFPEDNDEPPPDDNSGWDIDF

Ephrin type-A receptor 7 (Homo sapiens), sequence (Q15375 28-998 limits assumed): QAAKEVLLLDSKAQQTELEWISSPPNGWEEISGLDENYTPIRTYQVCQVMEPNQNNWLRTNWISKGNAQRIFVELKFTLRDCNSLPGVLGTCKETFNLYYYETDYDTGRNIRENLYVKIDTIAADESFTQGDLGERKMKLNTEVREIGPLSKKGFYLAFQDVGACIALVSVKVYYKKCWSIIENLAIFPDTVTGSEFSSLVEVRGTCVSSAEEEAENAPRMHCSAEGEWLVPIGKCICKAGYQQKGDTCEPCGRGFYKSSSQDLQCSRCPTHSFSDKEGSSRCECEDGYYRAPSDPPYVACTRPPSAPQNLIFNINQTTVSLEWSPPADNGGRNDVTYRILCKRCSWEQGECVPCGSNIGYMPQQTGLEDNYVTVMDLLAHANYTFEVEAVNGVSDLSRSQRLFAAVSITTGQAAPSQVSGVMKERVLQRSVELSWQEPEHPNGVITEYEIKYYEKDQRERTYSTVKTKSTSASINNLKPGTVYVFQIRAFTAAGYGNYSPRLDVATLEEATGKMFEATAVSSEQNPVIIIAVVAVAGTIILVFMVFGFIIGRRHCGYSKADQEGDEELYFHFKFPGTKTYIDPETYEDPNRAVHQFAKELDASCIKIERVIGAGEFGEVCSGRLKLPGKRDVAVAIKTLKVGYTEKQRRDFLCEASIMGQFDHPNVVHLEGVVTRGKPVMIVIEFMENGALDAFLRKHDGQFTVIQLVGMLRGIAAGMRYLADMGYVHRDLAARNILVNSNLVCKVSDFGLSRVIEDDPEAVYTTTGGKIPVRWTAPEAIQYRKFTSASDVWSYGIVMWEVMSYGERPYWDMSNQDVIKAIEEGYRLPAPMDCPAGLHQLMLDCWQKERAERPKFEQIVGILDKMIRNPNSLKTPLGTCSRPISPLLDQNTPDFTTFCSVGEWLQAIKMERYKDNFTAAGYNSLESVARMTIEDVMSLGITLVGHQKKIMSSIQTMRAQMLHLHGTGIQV
Tyrosine-protein kinase Fer (Homo sapiens), sequence (P16591 whole entry, looked up): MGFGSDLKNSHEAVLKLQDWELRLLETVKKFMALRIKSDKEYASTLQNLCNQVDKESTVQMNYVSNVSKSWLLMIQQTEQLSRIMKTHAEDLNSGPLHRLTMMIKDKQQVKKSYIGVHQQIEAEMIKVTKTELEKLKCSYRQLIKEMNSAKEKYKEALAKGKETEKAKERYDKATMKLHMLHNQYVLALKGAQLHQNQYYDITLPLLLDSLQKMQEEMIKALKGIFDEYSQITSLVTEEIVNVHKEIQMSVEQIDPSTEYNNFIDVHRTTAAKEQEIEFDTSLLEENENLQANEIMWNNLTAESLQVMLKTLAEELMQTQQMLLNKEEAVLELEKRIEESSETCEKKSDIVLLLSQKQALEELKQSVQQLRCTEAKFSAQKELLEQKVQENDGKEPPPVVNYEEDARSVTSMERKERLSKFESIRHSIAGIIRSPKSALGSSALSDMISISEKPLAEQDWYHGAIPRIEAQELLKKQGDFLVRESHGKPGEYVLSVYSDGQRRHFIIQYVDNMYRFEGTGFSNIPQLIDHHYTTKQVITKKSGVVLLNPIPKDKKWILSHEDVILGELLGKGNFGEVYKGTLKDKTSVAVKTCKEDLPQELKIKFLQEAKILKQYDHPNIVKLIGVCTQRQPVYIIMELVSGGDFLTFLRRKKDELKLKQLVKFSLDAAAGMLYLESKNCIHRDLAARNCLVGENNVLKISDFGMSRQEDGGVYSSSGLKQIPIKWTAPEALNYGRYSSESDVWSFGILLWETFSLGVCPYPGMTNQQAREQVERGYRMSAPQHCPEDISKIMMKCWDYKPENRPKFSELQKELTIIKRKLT
RAF proto-oncogene serine/threonine-protein kinase (Homo sapiens), sequence (P04049 whole entry): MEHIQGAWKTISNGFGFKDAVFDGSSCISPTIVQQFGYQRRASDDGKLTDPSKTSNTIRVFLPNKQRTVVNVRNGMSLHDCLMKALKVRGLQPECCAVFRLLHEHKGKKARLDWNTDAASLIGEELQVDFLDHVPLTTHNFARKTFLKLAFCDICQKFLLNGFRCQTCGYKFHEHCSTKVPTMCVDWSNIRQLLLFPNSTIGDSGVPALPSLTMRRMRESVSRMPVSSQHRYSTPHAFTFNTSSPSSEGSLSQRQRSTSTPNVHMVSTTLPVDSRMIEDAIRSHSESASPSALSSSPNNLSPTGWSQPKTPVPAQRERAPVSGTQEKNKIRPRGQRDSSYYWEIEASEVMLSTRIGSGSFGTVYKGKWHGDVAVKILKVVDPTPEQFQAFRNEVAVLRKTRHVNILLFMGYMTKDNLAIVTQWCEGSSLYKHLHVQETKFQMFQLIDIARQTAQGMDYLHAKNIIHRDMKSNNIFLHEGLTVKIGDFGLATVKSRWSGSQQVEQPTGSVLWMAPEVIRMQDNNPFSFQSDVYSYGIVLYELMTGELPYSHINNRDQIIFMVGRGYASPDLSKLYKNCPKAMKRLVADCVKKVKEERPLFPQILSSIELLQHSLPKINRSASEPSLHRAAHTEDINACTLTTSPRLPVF
Serine/threonine-protein kinase PLK3 (Homo sapiens), sequence (Q9H4B4 whole entry, looked up): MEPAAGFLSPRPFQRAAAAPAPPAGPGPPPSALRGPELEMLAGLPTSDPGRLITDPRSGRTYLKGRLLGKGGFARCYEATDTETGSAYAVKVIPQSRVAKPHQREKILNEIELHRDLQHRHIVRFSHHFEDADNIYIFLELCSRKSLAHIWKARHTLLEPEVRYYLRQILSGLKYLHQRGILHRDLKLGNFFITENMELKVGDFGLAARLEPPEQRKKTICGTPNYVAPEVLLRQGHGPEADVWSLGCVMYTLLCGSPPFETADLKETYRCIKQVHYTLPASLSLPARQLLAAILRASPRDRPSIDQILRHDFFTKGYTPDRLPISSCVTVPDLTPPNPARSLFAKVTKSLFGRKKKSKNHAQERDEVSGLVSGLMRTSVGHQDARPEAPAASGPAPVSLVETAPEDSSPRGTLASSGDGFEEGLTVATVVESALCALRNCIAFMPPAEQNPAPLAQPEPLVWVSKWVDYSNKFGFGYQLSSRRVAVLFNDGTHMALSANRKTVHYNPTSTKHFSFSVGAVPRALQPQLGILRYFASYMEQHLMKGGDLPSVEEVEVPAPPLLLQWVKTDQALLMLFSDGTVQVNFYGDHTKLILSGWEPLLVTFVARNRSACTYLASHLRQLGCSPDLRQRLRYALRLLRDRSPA
Vascular endothelial growth factor receptor 2 (Homo sapiens), sequence (P35968 whole entry): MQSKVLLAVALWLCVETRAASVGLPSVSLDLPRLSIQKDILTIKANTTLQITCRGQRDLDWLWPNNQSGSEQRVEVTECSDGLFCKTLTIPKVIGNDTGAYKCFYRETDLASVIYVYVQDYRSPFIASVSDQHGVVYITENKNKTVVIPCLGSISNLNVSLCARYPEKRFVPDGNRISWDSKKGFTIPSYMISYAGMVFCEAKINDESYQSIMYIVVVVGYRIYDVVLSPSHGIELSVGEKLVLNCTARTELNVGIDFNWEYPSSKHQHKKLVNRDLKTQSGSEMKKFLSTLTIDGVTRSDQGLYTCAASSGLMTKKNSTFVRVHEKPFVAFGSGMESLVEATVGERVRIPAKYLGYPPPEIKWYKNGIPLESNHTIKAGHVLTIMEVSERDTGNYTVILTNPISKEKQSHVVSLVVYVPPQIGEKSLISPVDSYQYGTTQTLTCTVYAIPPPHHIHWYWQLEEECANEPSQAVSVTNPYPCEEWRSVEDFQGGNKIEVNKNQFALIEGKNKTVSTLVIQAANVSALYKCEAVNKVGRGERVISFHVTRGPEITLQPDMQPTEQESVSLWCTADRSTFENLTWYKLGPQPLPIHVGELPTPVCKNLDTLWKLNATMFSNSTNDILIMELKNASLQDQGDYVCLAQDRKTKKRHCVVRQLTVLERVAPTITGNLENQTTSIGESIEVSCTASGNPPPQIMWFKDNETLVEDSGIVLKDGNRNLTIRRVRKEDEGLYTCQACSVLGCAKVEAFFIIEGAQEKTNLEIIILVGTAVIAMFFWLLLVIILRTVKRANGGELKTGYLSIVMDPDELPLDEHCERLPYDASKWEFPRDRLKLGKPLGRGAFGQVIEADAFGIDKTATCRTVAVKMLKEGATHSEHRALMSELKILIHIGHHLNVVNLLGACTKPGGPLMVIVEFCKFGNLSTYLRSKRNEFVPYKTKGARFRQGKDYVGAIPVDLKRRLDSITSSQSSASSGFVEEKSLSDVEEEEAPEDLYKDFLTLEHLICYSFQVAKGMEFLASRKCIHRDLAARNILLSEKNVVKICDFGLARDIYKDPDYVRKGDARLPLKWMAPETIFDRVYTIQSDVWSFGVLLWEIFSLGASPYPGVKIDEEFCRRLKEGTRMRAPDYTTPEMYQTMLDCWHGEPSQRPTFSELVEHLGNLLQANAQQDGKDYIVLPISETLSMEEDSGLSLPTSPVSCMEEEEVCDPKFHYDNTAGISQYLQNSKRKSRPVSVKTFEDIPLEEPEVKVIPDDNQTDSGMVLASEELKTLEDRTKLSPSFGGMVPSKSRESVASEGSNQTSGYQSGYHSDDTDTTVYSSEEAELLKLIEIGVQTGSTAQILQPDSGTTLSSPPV

Row | IC50 [1] | inhibition [2] | residual activity [3] | residual activity [4] | residual activity [5] | residual activity [6] | residual activity [7] | residual activity [8] | residual activity [9] | Structure (SMILES)
1 | 11 nM | 82% | 5% | 5% | 16% | 106% | 92% | 75% | 43% | Cc1ccc2cc(-c3n[nH]c4ccc(NC5CCNC5)cc34)[nH]c2c1 (stereo not drawn)
2 | 23 nM | 95% | 21% | 49% | 16% | 103% | 101% | 75% | 45% | Cc1ccc2cc(-c3n[nH]c4ccc(NC5CCN(Cc6ccccc6)CC5)cc34)[nH]c2c1
